Laboratory results as given in patent publication US10696989B2, “Biological method for preparing heme iron not derived from porcine blood” (INTRON BIOTECHNOLOGY, INC., priority 2017, dated 2020).

System: iron-deficiency-anemia-induced animals
Experiment: Effectiveness of heme iron salt on alleviating anemia in iron-deficiency-anemia-induced rats
Assay type: in vivo, Sprague-Dawley rats
Conditions: oral once a day, 0.1 mg Fe/500 μl saline
Procedure: The salt of the heme iron prepared according to the present invention was dissolved in saline and administered to iron-deficiency-anemia-induced animals, whereby the effectiveness of the salt of the heme iron prepared according to the present invention on alleviating anemia was evaluated. Specifically, thirty 7-week-old Sprague-Dawley rats (female) were divided into 3 groups of 10 rats per group, among which one group was fed with normal feed in an amount of 10% of body weight daily for one month (Group 1; control), and the remaining two groups were fed with iron-deficient feed in an amount of 10% of body weight daily for one month to induce iron-deficiency anemia (Group 2 and Group 3). After one month of feeding, it was confirmed that iron-deficiency anemia was induced in the individual rat belonging to Group 2 and Group 3. Then, one of the anemia-induced groups was orally administered once a day with saline alone (Group 2), and the other anemia-induced group was orally administered once a day with saline containing heme iron (0.1 mg Fe/500 μl saline) (Group 3). The administration continued for 30 days, and the occurrence of abnormal symptoms was monitored during the administration period. After 30 days of administration, blood was collected, and whether anemia was alleviated was evaluated. During 30 days of administration to Group 2 and Group 3, Group 1 was continuously fed with normal feed, and Group 2 and Group 3 were fed with iron-deficient feed. […]

[1] = female rats on iron-deficient feed, blood collected after 30 days

heme iron was tested, and the “Weight of rats on 30th day after administration” value (female rats on iron-deficient feed, 30 days) was 265.2 ± 1.1 g, the “Blood test: Hematocrit” value [1] was 35.8 ± 1.9% and the “Blood test: Hemoglobin content” value [1] was 14.2 ± 0.4 g/dL. The “Blood test: Mean corpuscular volume” value [1] was 48.2 ± 2.2 fL, the “Blood test: RBC” value [1] was 8.59 ± 0.1 ×10^6/μl and the “Alleviation of iron-deficiency anemia (conclusion)” value (30 days) was “effective at alleviating iron-deficiency anemia”. The “Occurrence of abnormal symptoms during the administration period” value (30 days) was “no abnormal symptoms”.
